In US20230399312A1, “SUBSTITUTED PYRIMIDINES AND METHODS OF USE” (THERAVANCE BIOPHARMA R&D IP, LLC, priority 2020, published 2023):

Assays:
[1] = target: T1, recombinant human ALK5 (TGF-βR1) protein (Homo sapiens, UniProt P36897); experiment: Biochemical ALK5 (TGF-βR1) assay to measure pKi (LANCE Ultra ULight kinase assay); conditions: apparent pKi, converted from pIC50 by Cheng-Prusoff
T1 construct: purchased Life Technologies PR9075A
T1 sequence (P36897 34-503): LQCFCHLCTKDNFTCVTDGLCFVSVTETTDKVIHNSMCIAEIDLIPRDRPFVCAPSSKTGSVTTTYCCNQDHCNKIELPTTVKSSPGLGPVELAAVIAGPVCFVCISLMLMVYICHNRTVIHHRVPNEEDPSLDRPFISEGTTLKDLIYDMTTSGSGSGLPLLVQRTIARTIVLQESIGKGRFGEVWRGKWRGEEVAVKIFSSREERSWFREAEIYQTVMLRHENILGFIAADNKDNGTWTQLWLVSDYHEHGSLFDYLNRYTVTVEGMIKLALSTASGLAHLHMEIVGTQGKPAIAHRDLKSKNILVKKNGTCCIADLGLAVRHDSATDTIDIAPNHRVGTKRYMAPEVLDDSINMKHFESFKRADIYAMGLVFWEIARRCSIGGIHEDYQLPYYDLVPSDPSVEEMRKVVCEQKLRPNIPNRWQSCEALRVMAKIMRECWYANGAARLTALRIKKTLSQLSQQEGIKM
How it was run: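 Europium TR-FRET kinase assay: the enzyme is exposed to compound for 60 min at room temperature, and reaction with ATP runs 60 min at 37 °C. Percent inhibition relative to DMSO and SD-208 controls gives pIC50, which is converted to pKi.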

[2] = test system: TGF-β-stimulated SMAD3 phosphorylation in BEAS-2B cells; experiment: Cellular ALK5 potency assay, inhibition of TGF-β stimulated pSMAD3 formation in BEAS-2B cells; type: cell-based; conditions: Homo sapiens, pSMAD3, TGF-β 10 ng/mL, read-out: BEAS2B pIC50 (converted)
How it was run: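 BEAS-2B cells, HBSS/25 mM HEPES/1% BSA buffer; cpd 1 h, 37 °C; TGF-β 10 ng/mL final, 30 min; lysis, AlphaLISA pSMAD3 read next day. pIC50 vs stimulated no-compound baseline.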

Structure (SMILES)	Ki [1] [nM]	IC50 [2] [nM]
Cc1cccc(-c2nccc(Nc3ccnc(Nc4ccc(N5CCNCC5)cn4)n3)n2)n1 [Compound 121, N4-(2-(6-methylpyridin-2-yl)pyrimidin-4-yl)-N2-(5-(piperazin-1-yl)pyridin-2-yl)pyrimidine-2,4-diamine]	0.398 to 3.16	25.1 to 158
Cc1cccc(-c2nccc(Nc3ccnc(Nc4ccc(Cl)c(N)c4)n3)n2)n1 [Compound 126, N2-(3-amino-4-chloro-phenyl)-N4-[2-(6-methyl-2-pyridyl)pyrimidin-4-yl]pyrimidine-2,4-diamine]	0.398 to 3.16	≤ 20
Cc1cccc(-c2nccc(Nc3ccnc(Nc4ccc(N5CCN(Cc6ccccn6)CC5)cc4)n3)n2)n1 [Compound 136, N4-[2-(6-methyl-2-pyridyl)pyrimidin-4-yl]-N2-[4-[4-(2-pyridylmethyl)piperazin-1-yl]phenyl]pyrimidine-2,4-diamine]	0.0398 to 0.316	25.1 to 158
CNC1CCN(c2ccc(Nc3nccc(Nc4ccnc(-c5cc(Cl)ccc5F)n4)n3)cc2)CC1 [Compound 137, N4-[2-(5-chloro-2-fluoro-phenyl)pyrimidin-4-yl]-N2-[4-[4-(methylamino)-1-piperidyl]phenyl]pyrimidine-2,4-diamine]	0.0398 to 0.316	25.1 to 158
Cc1cccc(-c2nccc(Nc3ccnc(Nc4ccc(CN5CCCC(C(=O)OC6CNC6)C5)cc4)n3)n2)n1 (stereo not shown) [Compound 138, azetidin-3-yl 1-[[4-[[4-[[2-(6-methyl-2-pyridyl)pyrimidin-4-yl]amino]pyrimidin-2-yl]amino]phenyl]methyl] piperidine-3-carboxylate]	0.0398 to 0.316	25.1 to 158
Cc1cccc(-c2nccc(Nc3ccnc(Nc4ccc(CN5CCC[C@@H](C(=O)O[C@H]6CCN(C)C6)C5)cc4)n3)n2)n1 [Compound 139, [(3S)-1-methylpyrrolidin-3-yl] (3R)-1-[[4-[[4-[[2-(6-methyl-2-pyridyl)pyrimidin-4-yl]amino]pyrimidin-2-yl]amino]phenyl]methyl] piperidine-3-carboxylate]	0.0398 to 0.316	≤ 20
Cc1cccc(-c2nccc(Nc3ccnc(Nc4nc(C(=O)NCC5(CO)CNC5)cs4)n3)n2)n1 [Compound 140, N-[[3-(hydroxymethyl)azetidin-3-yl]methyl]-2-[[4-[[2-(6-methyl-2-pyridyl)pyrimidin-4-yl]amino]pyrimidin-2-yl]amino]thiazole-4-carboxamide]	0.0398 to 0.316	25.1 to 158
Cc1cccc(-c2nccc(Nc3ccnc(Nc4cccc(CN5CCOCC5)c4)n3)n2)n1 [Compound 141, N4-[2-(6-methyl-2-pyridyl)pyrimidin-4-yl]-N2-[3-(morpholinomethyl)phenyl] pyrimidine-2,4-diamine]	0.0398 to 0.316	25.1 to 158
Cc1cccc(-c2nccc(Nc3ccnc(Nc4cc(C(=O)OCC5CNC5)cs4)n3)n2)n1 [Compound 142, azetidin-3-ylmethyl 5-((4-((2-(6-methylpyridin-2-yl)pyrimidin-4-yl)amino)pyrimidin-2-yl)amino)thiophene-3-carboxylate]	0.0398 to 0.316	25.1 to 158
Cc1cccc(-c2nccc(Nc3ccnc(Nc4ccc(N5C[C@@H](C)N[C@@H](C)C5)cc4)n3)n2)n1 [Compound 143, N4-[2-(6-methyl-2-pyridyl)pyrimidin-4-yl]-N2-[4-[rac-(3S,5R)-3,5-dimethylpiperazin-1-yl]phenyl]pyrimidine-2,4-diamine]	0.0398 to 0.316	25.1 to 158
Cc1cccc(-c2nccc(Nc3ccnc(Nc4cccc(NC(=O)C5CCN(C)CC5)c4)n3)n2)n1 [Compound 145, 1-methyl-N-[3-[[4-[[2-(6-methyl-2-pyridyl)pyrimidin-4-yl]amino]pyrimidin-2-yl]amino]phenyl]piperidine-4-carboxamide]	0.0398 to 0.316	25.1 to 158

Further lines, with some results ahead:

Ki [1] [nM]	Structure (SMILES)	IC50 [2] [nM]
0.0398 to 0.316	Cc1cccc(-c2nccc(Nc3ccnc(Nc4ccc(N5CCNCC5)c(F)c4)n3)n2)n1 [Compound 120, N2-(3-fluoro-4-piperazin-1-yl-phenyl)-N4-[2-(6-methyl-2-pyridyl)pyrimidin-4-yl]pyrimidine-2,4-diamine]	25.1 to 158
0.0398 to 0.316	Cc1cccc(-c2nccc(Nc3ccnc(Nc4ccc(S(=O)(=O)N(C)C5CCNCC5)cc4)n3)n2)n1 [Compound 122, N-methyl-4-[[4-[[2-(6-methyl-2-pyridyl)pyrimidin-4-yl]amino]pyrimidin-2-yl]amino]-N-(4-piperidyl)benzenesulfonamide]	25.1 to 158
≤ 0.0316	Cc1cccc(-c2nccc(Nc3ccnc(Nc4ccc(N5CCC(N6CCCC6)CC5)cc4)n3)n2)n1 [Compound 123, N4-[2-(6-methyl-2-pyridyl)pyrimidin-4-yl]-N2-[4-(4-pyrrolidin-1-yl-1-piperidyl)phenyl]pyrimidine-2,4-diamine]	25.1 to 158
0.0398 to 0.316	Cc1cccc(-c2nccc(Nc3ccnc(Nc4ccc(CN5CCC(C(=O)O)C5)cc4)n3)n2)n1 (stereo not shown) [Compound 124, 1-[[4-[[4-[[2-(6-methyl-2-pyridyl)pyrimidin-4-yl]amino]pyrimidin-2-yl]amino]phenyl]methyl] pyrrolidine-3-carboxylic acid]	25.1 to 158
0.0398 to 0.316	Cc1cccc(-c2nccc(Nc3ccnc(Nc4cccc(NC(=O)NC5CNC5)c4)n3)n2)n1 [Compound 125, 1-(azetidin-3-yl)-3-[3-[[4-[[2-(6-methyl-2-pyridyl)pyrimidin-4-yl]amino]pyrimidin-2-yl]amino]phenyl]urea]	25.1 to 158
0.0398 to 0.316	COC1CN(Cc2ccc(Nc3nccc(Nc4ccnc(-c5cccc(C)n5)n4)n3)cc2)C1 [Compound 127, N2-[4-[(3-methoxyazetidin-1-yl)methyl]phenyl]-N4-[2-(6-methyl-2-pyridyl)pyrimidin-4-yl]pyrimidine-2,4-diamine]	25.1 to 158
0.0398 to 0.316	Cc1cccc(-c2nccc(Nc3ccnc(Nc4ccc(C)c(NC(=O)C5CCNCC5)c4)n3)n2)n1 [Compound 128, N-[2-methyl-5-[[4-[[2-(6-methyl-2-pyridyl)pyrimidin-4-yl]amino]pyrimidin-2-yl]amino]phenyl]piperidine-4-carboxamide]	≤ 20
0.0398 to 0.316	Cc1cccc(-c2nccc(Nc3ccnc(Nc4ccc(CN5CCN6CCCC6C5)cc4)n3)n2)n1 (stereo not shown) [Compound 129, N2-[4-(3,4,6,7,8,8a-hexahydro-1H-pyrrolo[1,2-a]pyrazin-2-ylmethyl)phenyl]-N4-[2-(6-methyl-2-pyridyl)pyrimidin-4-yl]pyrimidine-2,4-diamine]	25.1 to 158
0.0398 to 0.316	Cc1cccc(-c2nccc(Nc3ccnc(Nc4ccc(F)c(CN5C[C@@H](C)N[C@@H](C)C5)c4)n3)n2)n1 [Compound 130, N2-[4-fluoro-3-[[rac-(3R,5S)-3,5-dimethylpiperazin-1-yl]methyl]phenyl]-N4-[2-(6-methyl-2-pyridyl)pyrimidin-4-yl]pyrimidine-2,4-diamine]	25.1 to 158
0.0398 to 0.316	Cc1cccc(-c2nccc(Nc3ccnc(Nc4ccc(CN5CC(O)C5)cc4)n3)n2)n1 [Compound 131, 1-[[4-[[4-[[2-(6-methyl-2-pyridyl)pyrimidin-4-yl]amino]pyrimidin-2-yl]amino]phenyl]methyl] azetidin-3-ol]	25.1 to 158
0.0398 to 0.316	Cc1cccc(-c2nccc(Nc3ccnc(Nc4ccc(CN5CCNC[C@@H]5CO)cc4)n3)n2)n1 [Compound 132, [(2R)-1-[[4-[[4-[[2-(6-methyl-2-pyridyl)pyrimidin-4-yl]amino]pyrimidin-2-yl]amino]phenyl]methyl]piperazin-2-yl]methanol]	25.1 to 158
0.0398 to 0.316	Cc1cccc(-c2nccc(Nc3ccnc(Nc4ccc(C5CCNCC5)cc4)n3)n2)n1 [Compound 133, N4-[2-(6-methyl-2-pyridyl)pyrimidin-4-yl]-N2-[4-(4-piperidyl)phenyl]pyrimidine-2,4-diamine]	25.1 to 158
0.0398 to 0.316	Cc1cccc(-c2nccc(Nc3ccnc(Nc4cccc(NC(=O)C5CCN(CCN(C)C)CC5)c4)n3)n2)n1 [Compound 134, 1-[2-(dimethylamino)ethyl]-N-[3-[[4-[[2-(6-methyl-2-pyridyl)pyrimidin-4-yl]amino]pyrimidin-2-yl]amino]phenyl]piperidine-4-carboxamide]	25.1 to 158
0.0398 to 0.316	Cc1cccc(-c2nccc(Nc3ccnc(Nc4ccc(Cl)c(NC(=O)C5CCNCC5)c4)n3)n2)n1 [Compound 135, N-[2-chloro-5-[[4-[[2-(6-methyl-2-pyridyl)pyrimidin-4-yl]amino]pyrimidin-2-yl]amino]phenyl]piperidine-4-carboxamide]	≤ 20
≤ 0.0316	Cc1cccc(-c2nccc(Nc3ccnc(Nc4ccc(N5CCCC(C(=O)O[C@H]6CCNC6)C5)cc4)n3)n2)n1 (stereo partly drawn) [Compound 144, [(3S)-pyrrolidin-3-yl] 1-[4-[[4-[[2-(6-methyl-2-pyridyl)pyrimidin-4-yl]amino]pyrimidin-2-yl]amino]phenyl]piperidine-3-carboxylate]	25.1 to 158
